Among the data in BindingDB's records for patent US20240317732 (Department of Health And Human Service, 2024) are Kd values, retold here.

SMILES strings stand for the structures.

One may read the Kd as the free concentration of one partner at which half of the binding sites on the other are occupied at equilibrium, for simple one-to-one binding. A lower Kd goes with a tighter complex.

The target in the assay is Proteasomal ubiquitin receptor ADRM1 (Homo sapiens, UniProt Q16186). Description: Isothermal Titration Calorimetry Experiments. How it is done: ITC experiments were performed at 25° C. on a MicroCal iTC200 system (Malvern, PA, USA). hRpn13 Pru, XL5, XL5 derivative, or RA190 were prepared in buffer C. One aliquot of 0.5 μL followed by 17 or 18 aliquots of 2.1 μL of 200 μM hRpn13 Pru was injected at 750 r.p.m. into a calorimeter cell (volume […]) that contained 20 μM XL5, XL5 derivative, or RA190. Blank experiments were performed by replacing XL5, XL5 derivative, or RA190 with buffer in the cell and the resulting data subtracted from the experimental data during analyses. The integrated interaction heat values were normalized as a function of protein concentration and the data were fit with MicroCal Origin 7.0-based software implementing the One Set of Sites model to yield binding affinity Ka (1/Kd), stoichiometry, and other thermodynamic parameters.
Chain of Proteasomal ubiquitin receptor ADRM1 (Q16186 whole entry): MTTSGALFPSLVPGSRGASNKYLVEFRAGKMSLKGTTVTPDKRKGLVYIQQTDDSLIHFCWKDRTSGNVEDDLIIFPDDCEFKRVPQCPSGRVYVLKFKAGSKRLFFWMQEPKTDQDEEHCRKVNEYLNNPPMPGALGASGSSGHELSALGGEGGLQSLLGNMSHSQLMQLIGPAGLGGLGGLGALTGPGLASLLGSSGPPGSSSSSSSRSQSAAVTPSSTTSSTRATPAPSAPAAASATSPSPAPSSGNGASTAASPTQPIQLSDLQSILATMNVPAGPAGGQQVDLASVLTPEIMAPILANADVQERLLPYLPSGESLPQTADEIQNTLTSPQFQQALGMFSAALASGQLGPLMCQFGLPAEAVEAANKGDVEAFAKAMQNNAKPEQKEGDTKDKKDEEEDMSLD
Background: ITC needs no label: the signal is the heat of the interaction.
`N#C/C(=C\c1cccc(NC(=O)c2ccccc2Cl)c1)C(=O)Nc1ccccc1C(=O)O` [US20240317732, Compound XL23]: the Kd turned out to be 3.88 µM.

In turn, `N#CC(=Cc1cccc(NC(=O)c2ccc(NCC(=O)O)cc2)c1)C(=O)Nc1ccccc1C(=O)O` [US20240317732, Compound XL25] displayed a Kd of 4.12 µM.

`Cc1ccc(C(=O)Nc2cccc(C=C(C#N)C(=O)Nc3ccccc3C(=O)O)c2)nc1O` [US20240317732, Compound XL27] registered a Kd of 3.94 µM.

On to `COc1ccc(NC(=O)/C(C#N)=C/c2cccc(NC(=O)c3ccc(C)cc3)c2)c(C(=O)O)c1` [US20240317732, Compound XL28], for which binding was put at a Kd of 3.82 µM.

For `CNc1ccc(NC(=O)/C(C#N)=C/c2cccc(NC(=O)c3ccc(C)cc3)c2)c(C(=O)O)c1` [US20240317732, Compound XL29], the affinity, expressed as Kd, was 7.81 µM.

Take `Cc1ccc(C(=O)Nc2cccc(C=C(C#N)C(=O)Nc3cccc(C(F)(F)F)c3C(=O)O)c2)cc1` [US20240317732, Compound XL30]: the Kd came out at 12.4 µM.
